Measurements: patent publication US12102432B2, “Uses of transdermal glomerular filtration rate measurement in continuous renal replacement therapy” (MediBeacon Inc., priority 2018, dated 2024)
“Also recorded” adds a separate entry of the source.

Columns and labels:
[1] = In vivo clearance by CVVHD in porcine model with bilateral nephrectomy; parameters: species or system Swine
[2] = stated as pharmacokinetic parameter, no test described; cited from earlier work
[3] = In vivo clearance by CVVH in porcine model with bilateral nephrectomy; parameters: species or system Swine
Description: Swine (3 male and 3 female, for both CVVH and CVVHD modalities) weighing 35-40 kg were used. In this model, a total functional nephrectomy was achieved by ligation of all renal arteries. Animals were inspected by professional veterinary staff within 48 hours of arrival. Any underlying infections or parasitism was treated based on veterinary recommendations.
Prior to study, the animals were fasted overnight (with water ad libitum) to reduce the risk of aspiration. On the morning of the study, animals were sedated with an intramuscular injection of Telazol/Xylazine (or a Ketamine/xylazine combination) at recommended doses and transported to the operating theatre. Pigs were then anesthetized via inhalation of 5% isoflurane in oxygen via mask. A catheter was placed in the marginal ear vein to provide immediate venous access for further medications and IV fluids.
Pigs were orotracheally intubated and the isoflurane concentration reduced to 1%-3% to maintain anesthesia for the duration of the experiment. Pigs were mechanically ventilated using a tidal volume of 10 mL/kg and respiratory rate adjusted to keep a P(CO2) of 40±2 mmHg. A three lead electrocardiogram was used to monitor heart rate and rhythm. Core body temperature was measured with a rectal thermistor probe and maintained at 37-39° C. with the use of a circulating water blanket.
Hair was removed from the ventral neck, abdominal and/or the femoral regions, and these sites were prepared for aseptic surgery. Lidocaine was injected at incision site(s). When a surgical plane of anesthesia was reached, the right carotid artery was approached via cut down incision and cannulated for continuous blood pressure monitoring. This facilitated withdrawal of blood samples for the study and for the determination of respiratory gases, acid-base status and glucose concentration. A catheter was placed in the right jugular/femoral vein to infuse medications or replacement fluids and an 11 Fr hemodialysis catheter was placed into the left jugular vein for both CVVH and CVVHD procedures.
The abdomen was then opened via a midline laparotomy. The renal hilum was identified, and ties were placed around the renal artery or arteries: for partial or total ligation as dictated by study requirements (full-function nephrectomy via total ligation of all renal arteries, and full-function nephrectomy of one kidney and partial ligation of the second kidney). Perivascular flow probes were placed around the proximal renal artery of the kidneys in situ, as required. […] A purse-sting suture was placed in the urinary bladder and a small cystotomy incision was performed to advance a Foley catheter for urine collection and quantification, as required.
Due to the length of time of study, the abdomen was closed in 2-3 layers with appropriate suture material to prevent desiccation of tissues. Suture patterns allowed for external extension of tubing and flow probe lines for equipment attachment as required. Following complete instrumentation, the pig was stabilized. Vital signs were monitored continuously and, once stable, either the CVVH and CVVHD experiment was initiated.
After taking a pre-MB-102 blood sample (baseline), a dose of 6 mg/kg of MB-102 was injected as a single bolus, followed by a 90 minute period of equilibration, to allow for MB-102 systemic redistribution (see FIGS. 7 and 13 for equilibration of fluorescent signal detected by the renal monitoring assembly). Thirty minutes after the MB-102 injection, Meropenum was infused for 30 minutes, which reached a peak concentration in blood ˜1 hr after the start of the infusion. After drug equilibration, CRRT was initiated (either CVVH or CVVHD) at a blood flow rate (BFR) of 100 mL/min with corresponding 20 mL/kg/hr effluent rate during a time-course of 90 minutes (with collections at 0, 30, 60, 90 minutes). […]

[4] = Adsorption of MB-102 to CRRT apparatus, in vitro CVVH model; format: in vitro ADME, bovine; settings: for mean percent change at the end of experiment: average of 6 experiments, 60 min
Description: As an initial step, it was determined if the compound MB-102 adsorbs onto the hemodiafilter, tubing or other parts of the CRRT instrument. This study used a continuous venovenous hemofiltration (CVVH) configuration to assess MB-102 adsorptive clearance with a previously validated in vitro CVVH model using 1 L of pH regulated, citrate-anti-coagulated bovine blood. Using a Braun DIAPACT™ CRRT system, two different hemodiafilters were tested: the HF1400 and the M150 hemodiafilters. New bovine blood, hemodiafilters, and CRRT tubing sets were used in each experiment. The blood was continuously stirred and maintained at 37° C. in a water bath during all experiments. Reconstituted MB-102 was added to the blood to achieve a final concentration of ˜6.2 mg/L. Urea was used as a control and added to the blood to produce a blood urea nitrogen (BUN) concentration of ˜75 mg/dL. Blood flow rates of 200 mL/min with an ultrafiltration rate (Quf) of 33 mL/min were tested. This maximized MB-102 contact with the membranes, both on the blood side and via convection through the hemodiafilter membrane. A closed system was developed to maintain a constant volume in the extracorporeal system. The effluent was used as the replacement fluid which was returned to the blood as a post-filter replacement fluid to maintain a constant blood volume. The CRRT instrument was primed with normal saline before operation, consequently the urea and MB-102 dilution caused by the residual priming solution was accounted for. Blood samples were collected from the pre-filter port at 0 (baseline), 5 (at which time mixing was complete), 10, 20, 30, and 60 minutes. Each experiment was repeated six times with new hemodiafilters and tubing sets.
Equations used to calculate the dilution factor and adsorption are as follows:
[formula] wherein C0 is the concentration of MB-102 in the pre-filter at time=0 minutes; and C60 is the concentration of MB-102 in the pre-filter at time=60 minutes.
[formula] where [Urea0] is the urea concentration in the pre-filter at time=0 minutes; and [Urea60] is the urea concentration in the pre-filter at time=60 minutes.
All blood samples were collected and centrifuged at 3000 rpm for 10 minutes. The plasma and effluent samples were transferred to cryovials in duplicate and stored at −80° C. until analysis. BUN concentrations were analyzed with Advia 1800 (Siemens Healthcare Diagnostic Inc., Tarrytown, N.Y., USA) having a lower limit of quantification of 5 mg/dL. […]

[5] = assembly on chest (QLS26), blood flow rate 100, effluent flow rate 20 mL/min, 1st of four regions
[6] = assembly on chest (QLS26), blood flow rate 100, effluent flow rate 20 mL/min, 3rd of four regions
[7] = assembly on chest (QLS26), blood flow rate 200, effluent flow rate 35 mL/min, 2nd of four regions
[8] = assembly on chest (QLS26), blood flow rate 200, effluent flow rate 35 mL/min, 4th of four regions
[9] = assembly on sternum (QLS25), blood flow rate 100, effluent flow rate 20 mL/min, 1st of four regions
[10] = assembly on sternum (QLS25), blood flow rate 100, effluent flow rate 20 mL/min, 3rd of four regions
[11] = assembly on sternum (QLS25), blood flow rate 200, effluent flow rate 35 mL/min, 2nd of four regions
[12] = assembly on sternum (QLS25), blood flow rate 200, effluent flow rate 35 mL/min, 4th of four regions

Nc1nc(C(=O)N[C@H](CO)C(=O)O)c(N)nc1C(=O)N[C@H](CO)C(=O)O [MB-102, (2R,2′R)-2,2′-((3,6-diaminopyrazine-2,5-dicarbonyl)bis(azanediyl))bis(3-hydroxypropanoic acid)]
MB-102 Clearance Rate Constant [1, 5]: 0.1439 h⁻¹
RDTC [1, 5]: 6.94 h
RDTC [1, 6]: 11.87 h
MB-102 Clearance Rate Constant [1, 7]: 0.1769 h⁻¹
RDTC [1, 7]: 5.65 h
MB-102 Clearance Rate Constant [1, 8]: 0.1192 h⁻¹
RDTC [1, 8]: 8.39 h
MB-102 Clearance Rate Constant [1, 9]: 0.1174 h⁻¹
RDTC [1, 9]: 8.52 h
MB-102 Clearance Rate Constant [1, 10]: 0.0871 h⁻¹
RDTC [1, 10]: 11.48 h
MB-102 Clearance Rate Constant [1, 11]: 0.1870 h⁻¹
RDTC [1, 11]: 5.35 h
MB-102 Clearance Rate Constant [1, 12]: 0.1288 h⁻¹
RDTC [1, 12]: 7.76 h
protein binding [2]: 0%
MB-102 Clearance Rate Constant [3, 5]: 0.1129 h⁻¹
RDTC [3, 5]: 8.86 h
MB-102 Clearance Rate Constant [3, 6]: 0.0879 h⁻¹
RDTC [3, 6]: 11.38 h
MB-102 Clearance Rate Constant [3, 7]: 0.1314 h⁻¹
RDTC [3, 7]: 7.61 h
MB-102 Clearance Rate Constant [3, 8]: 0.1308 h⁻¹
RDTC [3, 8]: 7.64 h
MB-102 Clearance Rate Constant [3, 9]: 0.1145 h⁻¹
RDTC [3, 9]: 8.73 h
MB-102 Clearance Rate Constant [3, 10]: 0.0763 h⁻¹
RDTC [3, 10]: 13.11 h
MB-102 Clearance Rate Constant [3, 11]: 0.145 h⁻¹
RDTC [3, 11]: 6.90 h
MB-102 Clearance Rate Constant [3, 12]: 0.1238 h⁻¹
RDTC [3, 12]: 8.08 h
adsorption to CRRT materials (tubing, hemodiafilters) ([4]; HF1400 and M150 hemodiafilters): not observed; also recorded: does not bind
mean percent change at the end of experiment ([4]; HF1400 hemodiafilter): 18.7%
mean percent change at the end of experiment ([4]; M150 hemodiafilter): 18.9%
